Reference: PubChem BioAssay (NCI)
Values joined by “and” are separate entries in the source; they are usually repeats but may differ in a detail not shown here. Equal entries are not always repeated.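 Protocol summary: plate cells (96-well), add compound at 5 concentrations, incubate 48 h, interpolate endpoints linearly. GI50: concentration for 50% inhibition of growth. TGI marks complete inhibition of growth.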

What was measured:
Experiment in all cases: NCI anticancer screen, dose series, 48 h
786-0 renal = system: 786-0 renal
BT-549 breast = system: BT-549 breast
HCT-15 colon = system: HCT-15 colon
HOP-18 NSCLC = system: HOP-18 NSCLC
K-562 leukemia = system: K-562 leukemia
KM12 colon = system: KM12 colon
LXFL 529 NSCLC = system: LXFL 529 NSCLC
M14 melanoma = system: M14 melanoma
SF-539 CNS = system: SF-539 CNS
SNB-75 CNS = system: SNB-75 CNS

Compound	TGI (786-0 renal)	GI50 (BT-549 breast) [nM]	GI50 (HCT-15 colon) [µM]	TGI (HCT-15 colon) [µM]	TGI (HOP-18 NSCLC) [µM]	GI50 (K-562 leukemia)	TGI (K-562 leukemia)	GI50 (KM12 colon)	TGI (KM12 colon)	TGI (LXFL 529 NSCLC) [µM]	GI50 (M14 melanoma)	TGI (M14 melanoma)	TGI (SF-539 CNS)	GI50 (SNB-75 CNS)	TGI (SNB-75 CNS)	GI50 (786-0 renal)	TGI (BT-549 breast)	GI50 (HOP-18 NSCLC) [µM]	GI50 (LXFL 529 NSCLC) [µM]	GI50 (SF-539 CNS)
CC(=O)Oc1ccc(C(c2ccc(OC(C)=O)cc2)c2ccccn2)cc1	> 100 µM	313	31.8	> 100	> 100	39.3 µM	> 100 µM	39.2 µM	> 100 µM	> 100	56.6 µM	> 100 µM	> 100 µM	24.8 µM	> 100 µM					
[Cl][Cd][Cl]	44.4 µM and 17.6 µM		52.2	150	> 62.1	2.01 µM and 20 µM and 14.8 µM	51.3 µM and 147 µM	17.9 µM and 9.62 µM	35.1 µM and 30.1 µM	28.4	43.4 µM and 62.3 µM	> 76.9 µM and 161 µM	47.4 µM and 62.5 µM	22.7 µM and 11.2 µM	45.6 µM and 29.4 µM	21 µM and 8.67 µM	2.07 µM and 17.6 µM	> 42.3	13.3	4.51 µM and 19.5 µM and 18.9 µM
